One assay relates to TMEM16A. Description: DNA microarray analysis of mice with pulmonary aspergillosis. It counts as in vivo. The conditions noted are these: unpublished results.
In assay [1] the target is T1, ΔF508 CFTR (Homo sapiens, UniProt P13569, DEL508-508). Briefly: Chloride permeability by SPQ fluorescence assay upon forskolin stimulation, HBE cells from CF patients. It counts as cell-based. The protocol:
(§1) Cells. Cell Lines and Cell Culture—Human bronchial epithelial (HBE) cells, homozygous for the […] mutation and its isogenic wild-type were obtained from lung transplants (CF patients) or lung resections (non-CF patients) (kindly provided by L J Galietta within the Italian Cystic Fibrosis Foundation). Cells were maintained at 37° C. in a humidified incubator in an atmosphere containing 5% CO2, and the experiments were done 5 days after plating (21, 22). Stable lentiviral-based transduction of the parental CFBE41o− cells (ΔF508/ΔF508), originally immortalized and characterized by Dr. D. Gruenert and co-workers (32) with either WT-CFTR or ΔF508-CFTR, was performed by Tranzyme, Inc. (Birmingham, AL). […]
(§2) The activity of Tα1, either alone or in combination with ivacaftor, has been comparatively assessed with that of lumacaftor on CFBE41o− cells expressing ΔF508 CFTR and on HBE cells from CF patients. To this purpose, cells were treated with Tα1 (100 ng/ml), VX-770 (1 μM) or VX-809 (3 μM) alone or in combination for 24 hours and assessed for CFTR protein expression and function. […] In terms of ion channel activity, Tα1, either alone or in combination with ivacaftor, increased the chloride permeability of ΔF508 CFTR cells between 60 to 70% relative to control (considering WT control as 100% reference value)(B, assessed by a fluorescence assay upon stimulation with fosforkolin, Fsk). […]

Assay [2] concerns the target T1, ΔF508 CFTR. Description: Chloride permeability by SPQ fluorescence assay upon forskolin stimulation, CFBE41o− cells. Format: cell-based. The protocol:
as §1, §2

Assay [3] concerns A. fumigatus-infected C57BL/6 and Cftr−/− mice. Briefly: Lung inflammatory pathology and cell recruitment in Aspergillus-infected mice. The conditions noted are these: 200 μg/kg/i.p. daily for 6 days, 7 days post-infection. Format: in vivo. The protocol: (§3) Mice. Wild-type (WT) inbred C57BL6 mice, 8 to 12 weeks old, were purchased from Charles River Breeding Laboratories (Calco, Italy). Genetically engineered homozygote Cftr^−/− mice (33) were bred at the Cystic Fibrosis core animal facility at San Raffaele Hospital, Milan, Italy. Experiments were performed following protocols approved by the institutional animal committee and in accordance with European Economic Community Council Directive as well as institutional animal care and use guidelines.
Infection and treatments. Mice were anesthetized by i.p. injection of 2.5% avertin (Sigma Chemical Co, St. Louis, MO) before intranasal instillation of 2×10^7 A. fumigatus (Af293) resting conidia/20 μl saline. For histology, paraffin-embedded tissue were stained with Periodic acid-Schiff (PAS), and BAL fluid collection was done as described (21, 22). […]
Aspergillus-infected mice were treated with 200 μg/kg/i.p. daily of Tα1 for 6 consecutive days beginning the day of the infection. Mice were monitored for lung inflammatory pathology and cell recruitment at 7 days post-infection. […] Differential cell count of mononuclear (MNC), polymorphonuclear (PMN) cells and eosinophils (EOS) was determined upon May Grunwald Giemsa staining. […]

For assay [4] the test system is unchanged. Description: IL-1 cytokine levels in BAL by ELISA in CF mice with aspergillosis. The conditions noted are these: 200 μg/kg/i.p. daily 6 days, 7 days post-infection. It counts as in vivo. The protocol:
as §3
Infection and treatments. Mice were anesthetized by i.p. injection of 2.5% avertin (Sigma Chemical Co, St. Louis, MO) before intranasal instillation of 2×10^7 A. fumigatus (Af293) resting conidia/20 μl saline. For histology, paraffin-embedded tissue were stained with Periodic acid-Schiff (PAS), and BAL fluid collection was done as described (21, 22). Treatments were as follow: Tα1 and the scrambled polypeptide were supplied as purified (the endotoxin levels were <0.03 pg/ml, by a standard limulus lysate assay) sterile, lyophilized, acetylated polypeptide. The sequences were as follows: Ac-[…]O (Tα1) (SEQ ID NO:1) and Ac-[…]OH (scrambled peptide) (SEQ ID NO:2). The lyophilized powders were reconstituted in sterile water and 200 μg/kg/i.p. were given daily for 6 consecutive days beginning the day of the infection.
Cytokine determination by ELISA. Cytokine levels in lung homogenates from treated and untreated mice were determined by cytokine-specific ELISA (R&D Systems, Inc. Space Import-Export srl, Milan, Italy) as described (21, 22)
C57BL/6 and Cftr^−/− mice were infected intranasally with live A. fumigatus conidia and treated with 200 μg/kg/i.p. Tα1 daily for 6 consecutive days beginning the day of the infection. […] The levels of IL-1β, IL-1α and IL-1RA in the BAL were measured by ELISA (pg/ml) at 7 days post-infection. The results shown represent pooled data from two experiments. *P<0.05; **P<0.01; ***P<0.001.
Background: In an ELISA, binding on a coated surface is turned into a signal by an enzyme label.

Where [5] appears, read: either type of mice (C57BL/6, Cftr−/−).

T1 sequence (P13569 with tags, fused parts or gaps DEL508-508): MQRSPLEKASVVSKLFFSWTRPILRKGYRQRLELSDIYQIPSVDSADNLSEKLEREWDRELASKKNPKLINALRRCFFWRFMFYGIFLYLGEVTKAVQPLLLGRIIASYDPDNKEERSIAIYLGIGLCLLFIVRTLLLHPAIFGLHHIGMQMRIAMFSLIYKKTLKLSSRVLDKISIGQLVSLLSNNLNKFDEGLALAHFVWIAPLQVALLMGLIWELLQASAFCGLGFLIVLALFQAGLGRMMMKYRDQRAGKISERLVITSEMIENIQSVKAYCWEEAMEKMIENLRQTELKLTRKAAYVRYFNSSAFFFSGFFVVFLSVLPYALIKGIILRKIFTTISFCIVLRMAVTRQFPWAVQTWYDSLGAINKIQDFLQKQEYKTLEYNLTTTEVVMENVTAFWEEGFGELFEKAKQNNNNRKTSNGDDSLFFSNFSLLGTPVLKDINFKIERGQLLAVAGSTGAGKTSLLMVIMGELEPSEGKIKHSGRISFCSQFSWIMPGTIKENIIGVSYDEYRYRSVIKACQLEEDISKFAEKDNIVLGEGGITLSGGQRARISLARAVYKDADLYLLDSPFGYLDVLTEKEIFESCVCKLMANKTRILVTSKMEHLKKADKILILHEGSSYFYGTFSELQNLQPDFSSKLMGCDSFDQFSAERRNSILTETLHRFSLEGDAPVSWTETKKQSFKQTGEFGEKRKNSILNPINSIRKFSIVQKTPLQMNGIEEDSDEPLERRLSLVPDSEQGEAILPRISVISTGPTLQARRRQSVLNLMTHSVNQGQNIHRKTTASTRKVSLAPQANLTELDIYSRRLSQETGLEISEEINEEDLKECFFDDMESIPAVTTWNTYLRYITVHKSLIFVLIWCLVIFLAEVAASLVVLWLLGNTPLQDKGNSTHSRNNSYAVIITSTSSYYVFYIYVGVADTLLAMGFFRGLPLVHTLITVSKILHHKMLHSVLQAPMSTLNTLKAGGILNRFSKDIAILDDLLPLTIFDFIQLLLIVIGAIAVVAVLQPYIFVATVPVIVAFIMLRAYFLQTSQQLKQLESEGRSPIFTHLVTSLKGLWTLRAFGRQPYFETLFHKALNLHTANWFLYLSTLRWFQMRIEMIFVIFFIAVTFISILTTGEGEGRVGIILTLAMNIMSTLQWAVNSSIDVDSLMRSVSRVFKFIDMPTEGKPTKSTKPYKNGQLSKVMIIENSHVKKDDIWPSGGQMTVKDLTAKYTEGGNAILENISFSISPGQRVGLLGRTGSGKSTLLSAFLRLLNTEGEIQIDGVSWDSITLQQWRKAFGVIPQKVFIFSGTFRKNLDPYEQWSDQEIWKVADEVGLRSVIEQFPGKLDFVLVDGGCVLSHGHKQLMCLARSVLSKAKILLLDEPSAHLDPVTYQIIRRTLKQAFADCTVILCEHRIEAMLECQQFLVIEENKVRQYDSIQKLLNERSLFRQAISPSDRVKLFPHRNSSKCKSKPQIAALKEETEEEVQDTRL

Turning to “Ac-Ser-Asp-Ala-Ala-Val-Asp-Thr-Ser-Ser-Glu-Ile-Thr-Thr-Lys-Asp-Leu-Lys-Glu-Lys-Lys-Glu-Val-Val-Glu-Glu-Ala-Glu-Asn-O (Ac-SDAAVDTSSEITTKDLKEKKEVVEEAEN-OH; not fully specified; printed as Ac-Ser-Asp-Ala-Ala-Val-Asp-Thr-Ser-Ser-Glu-Ile-Thr-Thr-Lys-Asp-Leu-Lys-Glu-Lys-Lys-Glu-Val-Val-Glu-Glu-Ala-Glu-Asn-O; listed as Homo sapiens) [Tα1, naturally occurring polypeptide of 28 amino acid; supplied as purified sterile, lyophilized, acetylated polypeptide]”, the “expression of TMEM16A in mice with pulmonary aspergillosis” value in the assay on TMEM16A is recorded as “greatly increased”. The “chloride permeability of ΔF508 CFTR cells relative to control (WT control as 100%)” value with ΔF508 CFTR [1] (100 ng/ml Tα1 for 24 hours, forskolin stimulation) is given as “approximately 70%”; with ΔF508 CFTR [2] (100 ng/ml Tα1 for 24 hours, CFBE41o− cells, forskolin stimulation), “approximately 70%”. Besides, the “ion channel activity compared to lumacaftor” value is “similar” in the assay with ΔF508 CFTR [1] (24 hours) and “lower” in the assay with ΔF508 CFTR [2] (CFBE41o− cells expressing ΔF508 CFTR, 24 hours). Also, the “local inflammatory cell recruitment and lung pathology (lung and BAL)” value in assay [3] (C57/BL6 mice) and in assay [3] (Cftr−/− mice) was “significantly decreased” throughout. Also, the “levels of the inflammatory-blocking cytokine IL-1RA in the BAL” value in assay [4] was “increased”. For the same substance, in assay [4] (setting [5]), the “levels of IL-1α in the BAL” value is recorded as “sharply decreased”. Further, the “levels of IL-1β in the BAL” value in assay [4] (setting [5]) is recorded as “sharply decreased”.
